# Assays:
# [1] = test system: Bacillus licheniformis spores; conditions: L-alanine dehydrogenase dependent first step; cited from earlier work
# [2] = test system: Bacillus (Bacillus licheniformis, Bacillus thuringiensis/cereus) present in sporulated form; experiment: Milk powder samples not contaminated with Staphylococcus aureus incubated in culture medium with or without D-alanine; fluorescence reading and MPN count of nonspecific growth; assay type: cell-based
# Protocol: The example described hereinafter illustrates the inhibiting effect of D-alanine on the […] of microorganisms of Bacillus type (such as Bacillus licheniformis, Bacillus thuringiensis/cereus).
# To do this, 59 samples of milk powder products liable to contain Bacillus microorganisms, also not contaminated with Staphylococcus aureus, were tested.
# In order to study the inhibiting effect of D-alanine, two culture media were tested:
# Medium 1: culture medium without D-alanine,
# Medium 2: culture medium in the presence of D-alanine at a final concentration in the medium of between 0.05 and 0.1 mol/l (final concentration in the medium).
# The composition of said culture medium is the following (in g/l, final concentration in the medium with or without D-alanine):
# The samples were prepared according to ISO standard 8261: 2001 (concerning milk and milk products and relating to the “general guidelines for the preparation of test samples, of the stock suspension and of the decimal dilutions for the purpose of microbiological examination”) according to the following steps: • a) 10 grams of the sample are weighed out and placed in a Stomacher® bag, • b) 90 ml of tryptone salt diluent preheated to 45° C. are added so as to obtain an initial 1/10 dilution of the sample, • c) grinding is carried out using a Stomacher® machine for one minute, • d) the Stomacher® bag is placed in a water bath and stirred for 5 minutes at 45° C., • e) 1 ml of the sample (diluted to 1/10) is taken and placed in 3 ml of culture medium so as to obtain a 1/40 dilution, • f) incubation is carried out for a period of between 24 and 27 hours at a temperature of 37° C., • g) the culture medium is read by fluorescence and the level of contamination of the sample with microorganisms is determined by means of the most probable number technique.
# The reading consists of a measurement of the fluorescence of the culture medium obtained after incubation. A large variation in the fluorescence values attests to acidification of the medium, said acidification itself resulting from the growth of one or more microorganisms.
# The CV fluorescence values were calculated on the basis of the samples tested (not contaminated with Staphylococcus aureus).
# The higher the CV, the greater the acidification of the medium, thereby attesting to growth of the microorganisms present in the culture medium. Conversely, the lower the CV, the less the acidification, thereby reflecting less growth of the microorganisms. The specificity of the medium is therefore better and the risk of false positives is therefore less (false-positive result linked to the acidification of the medium by a bacterium of a microorganism other than Staphylococcus aureus). […]
compound,measurement,setting,value
C[C@@H](N)C(=O)O [D-alanine],inhibition of the first step of spore germination,[1],inhibited
same,% of samples with MPN count <10 (good specificity),"[2]; 59 milk powder samples, D-alanine 0.05-0.1 mol/l, 24-27 hours at 37° C.",89.83%
same,rate of false-positive results,"[2]; 59 milk powder samples, false positives related to growth of Bacillus",10.17%
same,highest false-positive count result,"[2]; 59 milk powder samples, with the use of D-alanine",≤ 50 CFU/gram
same,effect on CV values obtained after incubation of the medium,[2]; D-alanine in the culture medium vs. medium without,greatly reduce the CV values
CCOC(=O)C(C)=O [ethyl pyruvate],inhibition of the first step of spore germination,[1],inhibited
CCCCCCCCO [octanol],inhibition of the first step of spore germination,[1],inhibited
